What was measured:
HCT116 xenografts = experiment: [18F]-D4-FCH PET imaging; assay type: in vivo, BALB/c nude mice
Excerpt: Mice were anesthetized through isoflurane inhalation and scanned on a Siemens Multimodality Inveon small animal PET-CT scanner for [^18F]-D4-FCH PET studies using HCT116 xenografts. Low dose CT scans were first acquired (80 kVp, 0.5 mA, 220 degree rotation, 600 ms per degree exposure time, 80 μm reconstruction pixel size) for PET attenuation correction and anatomical reference. PET images were acquired following a bolus i.v. injection of approximately 3.7 MBq tracer in the tail vein. Dynamic emission scans were acquired in list mode format over 60 minutes. Data were sorted into 0.5 mm sinogram bins and 19 time frames for image reconstruction by filtered back projection (4 × 15 seconds, 4 × 60 seconds and 11 × 300 seconds). The Siemens Inveon Research Workplace software was used for visualization of radiotracer uptake. To define 3-dimensional regions of interest (ROI), 30 to 60-minute cumulative images of the dynamic were employed. Arterial input function was estimated by drawing ROIs over the center of the heart cavity using cumulative images from 0.25 to 2 minutes of the dynamic series, a method previously validated for use in rodents. The count densities were averaged for all ROIs at each time point to obtain time versus radioactivity curves (TAC). Tumor TACs were normalized to injected dose measured by a VDC-304 dose calibrator (Veenstra Instruments) and normalized uptake was expressed as percentage injected dose per mL tissue (NUV; %ID/mL).

NUAK1 = NUAK1 (Homo sapiens, UniProt O60285); experiment: Kinase selectivity screen; assay type: biochemical; conditions: NUAK1, 10 μM
Outline: (§1)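 ICL-CCIC-0019 was screened against a panel of 131 human kinases to assess kinase specificity. Activity was expressed as percent inhibition of each kinase.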

DYRK2 = DYRK2 (Homo sapiens, UniProt Q92630); experiment: Kinase selectivity screen; assay type: biochemical; conditions: DYRK2, 10 μM
Outline: as §1

SIK3 = SIK3 (Homo sapiens, UniProt Q9Y2K2); experiment: Kinase selectivity screen; assay type: biochemical; conditions: SIK3, 10 μM
Outline: as §1

TTK = TTK (Homo sapiens, UniProt P33981); experiment: Kinase selectivity screen; assay type: biochemical
Outline: as §1

PAK2 = PAK2 (Homo sapiens, UniProt Q13177); experiment: Kinase selectivity screen; assay type: biochemical; conditions: PAK2, 10 μM
Outline: as §1

IR = IR (Homo sapiens, UniProt P06213); experiment: Kinase selectivity screen; assay type: biochemical
SIK2 = SIK2 (Homo sapiens, UniProt Q9H0K1); experiment: Kinase selectivity screen; assay type: biochemical; conditions: SIK2, 10 μM
Outline: as §1

PKBa = PKBa (Homo sapiens, UniProt P31749); experiment: Kinase selectivity screen; assay type: biochemical
Outline: as §1

p38d MAPK = p38d MAPK (Homo sapiens, UniProt O15264); experiment: Kinase selectivity screen; assay type: biochemical
Outline: as §1

HIPK1 = HIPK1 (Homo sapiens, UniProt Q86Z02); experiment: Kinase selectivity screen; assay type: biochemical; conditions: HIPK1, 10 μM
Outline: as §1

PKCa = PKCa (Homo sapiens, UniProt P17252); experiment: Kinase selectivity screen; assay type: biochemical
Outline: as §1

IKKe = IKKe (Homo sapiens, UniProt Q14164); experiment: Kinase selectivity screen; assay type: biochemical
Outline: as §1

TAO1 = TAO1 (Homo sapiens, UniProt Q7L7X3); experiment: Kinase selectivity screen; assay type: biochemical; conditions: TAO1, 10 μM
Outline: as §1

ZAP70 = ZAP70 (Homo sapiens, UniProt P43403); experiment: Kinase selectivity screen; assay type: biochemical; conditions: ZAP70, 10 μM
Outline: as §1

PKD1 = PKD1 (Homo sapiens, UniProt Q15139); experiment: Kinase selectivity screen; assay type: biochemical; conditions: PKD1, 10 μM
Outline: as §1

EF2K = EF2K (Homo sapiens, UniProt O00418); experiment: Kinase selectivity screen; assay type: biochemical
Outline: as §1

CK1δ = CK1δ (Homo sapiens, UniProt P48730); experiment: Kinase selectivity screen; assay type: biochemical
PIM2 = PIM2 (Homo sapiens, UniProt Q9P1W9); experiment: Kinase selectivity screen; assay type: biochemical; conditions: PIM2, 10 μM
Outline: as §1

JAK2 = JAK2 (Homo sapiens, UniProt O60674); experiment: Kinase selectivity screen; assay type: biochemical; conditions: JAK2, 10 μM
VEG-FR = VEG-FR (Homo sapiens, UniProt P17948); experiment: Kinase selectivity screen; assay type: biochemical
Outline: as §1

MARK4 = MARK4 (Homo sapiens, UniProt Q96L34); experiment: Kinase selectivity screen; assay type: biochemical; conditions: MARK4, 10 μM
TSSK1 = TSSK1 (Homo sapiens, UniProt Q9BXA7); experiment: Kinase selectivity screen; assay type: biochemical; conditions: TSSK1, 10 μM
Outline: as §1

Src = Src (Homo sapiens, UniProt P12931); experiment: Kinase selectivity screen; assay type: biochemical
Outline: as §1

Chain of PKD1 (Q15139 whole entry): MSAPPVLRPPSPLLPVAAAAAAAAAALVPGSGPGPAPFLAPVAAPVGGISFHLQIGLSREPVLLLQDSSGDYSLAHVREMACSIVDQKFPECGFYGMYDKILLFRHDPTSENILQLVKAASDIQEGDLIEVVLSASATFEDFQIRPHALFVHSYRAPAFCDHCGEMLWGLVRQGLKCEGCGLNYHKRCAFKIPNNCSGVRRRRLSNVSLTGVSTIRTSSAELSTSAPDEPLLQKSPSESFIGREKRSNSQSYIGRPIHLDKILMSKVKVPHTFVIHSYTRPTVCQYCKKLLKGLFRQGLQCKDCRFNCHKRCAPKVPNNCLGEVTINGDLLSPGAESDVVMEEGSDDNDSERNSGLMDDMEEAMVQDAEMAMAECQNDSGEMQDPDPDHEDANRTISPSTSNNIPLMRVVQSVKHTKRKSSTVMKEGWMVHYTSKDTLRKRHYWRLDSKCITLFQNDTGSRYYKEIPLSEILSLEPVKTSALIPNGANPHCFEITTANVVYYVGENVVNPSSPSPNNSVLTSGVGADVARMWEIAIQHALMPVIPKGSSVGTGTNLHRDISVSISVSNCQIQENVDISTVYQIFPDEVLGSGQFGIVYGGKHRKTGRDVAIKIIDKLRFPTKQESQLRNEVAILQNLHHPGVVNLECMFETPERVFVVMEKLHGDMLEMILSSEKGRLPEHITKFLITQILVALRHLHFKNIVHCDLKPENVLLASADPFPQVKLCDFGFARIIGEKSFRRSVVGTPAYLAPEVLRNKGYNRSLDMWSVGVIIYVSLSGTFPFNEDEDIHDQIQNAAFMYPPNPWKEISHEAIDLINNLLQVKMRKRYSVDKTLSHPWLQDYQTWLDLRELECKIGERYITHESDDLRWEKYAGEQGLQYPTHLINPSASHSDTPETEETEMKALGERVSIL
Chain of PIM2 (Q9P1W9 whole entry): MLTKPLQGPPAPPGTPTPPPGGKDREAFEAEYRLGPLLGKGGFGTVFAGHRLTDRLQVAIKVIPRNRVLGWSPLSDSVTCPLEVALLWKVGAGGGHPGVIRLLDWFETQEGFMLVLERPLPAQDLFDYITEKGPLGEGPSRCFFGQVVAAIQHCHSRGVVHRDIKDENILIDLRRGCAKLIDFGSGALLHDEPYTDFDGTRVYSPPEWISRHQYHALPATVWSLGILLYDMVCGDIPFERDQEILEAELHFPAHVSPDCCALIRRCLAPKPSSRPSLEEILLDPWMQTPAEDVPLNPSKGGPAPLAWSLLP
Chain of p38d MAPK (O15264 whole entry): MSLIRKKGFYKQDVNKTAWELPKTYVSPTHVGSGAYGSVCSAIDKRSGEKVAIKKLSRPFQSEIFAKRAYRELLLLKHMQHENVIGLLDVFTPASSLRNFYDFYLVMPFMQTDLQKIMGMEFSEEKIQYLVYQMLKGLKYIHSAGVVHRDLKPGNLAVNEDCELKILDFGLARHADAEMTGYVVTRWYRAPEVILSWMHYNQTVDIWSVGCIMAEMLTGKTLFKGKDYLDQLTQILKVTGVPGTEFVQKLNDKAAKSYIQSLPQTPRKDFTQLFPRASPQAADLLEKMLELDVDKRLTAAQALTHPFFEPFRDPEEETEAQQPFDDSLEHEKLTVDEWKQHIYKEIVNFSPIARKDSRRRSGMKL
Chain of PKBa (P31749 whole entry): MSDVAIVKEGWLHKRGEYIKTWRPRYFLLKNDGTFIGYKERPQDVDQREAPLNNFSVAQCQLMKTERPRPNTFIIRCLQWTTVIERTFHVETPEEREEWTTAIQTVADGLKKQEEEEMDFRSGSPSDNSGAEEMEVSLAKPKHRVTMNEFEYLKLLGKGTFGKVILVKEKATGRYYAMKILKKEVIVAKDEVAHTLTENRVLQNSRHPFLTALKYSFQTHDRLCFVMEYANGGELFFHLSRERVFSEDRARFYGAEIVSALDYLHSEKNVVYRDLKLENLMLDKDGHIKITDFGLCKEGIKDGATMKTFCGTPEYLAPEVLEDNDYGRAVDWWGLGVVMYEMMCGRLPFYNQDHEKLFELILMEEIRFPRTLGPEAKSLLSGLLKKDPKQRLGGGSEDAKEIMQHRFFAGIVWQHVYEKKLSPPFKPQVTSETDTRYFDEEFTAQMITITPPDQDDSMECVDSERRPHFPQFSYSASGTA
Chain of SIK3 (Q9Y2K2 whole entry): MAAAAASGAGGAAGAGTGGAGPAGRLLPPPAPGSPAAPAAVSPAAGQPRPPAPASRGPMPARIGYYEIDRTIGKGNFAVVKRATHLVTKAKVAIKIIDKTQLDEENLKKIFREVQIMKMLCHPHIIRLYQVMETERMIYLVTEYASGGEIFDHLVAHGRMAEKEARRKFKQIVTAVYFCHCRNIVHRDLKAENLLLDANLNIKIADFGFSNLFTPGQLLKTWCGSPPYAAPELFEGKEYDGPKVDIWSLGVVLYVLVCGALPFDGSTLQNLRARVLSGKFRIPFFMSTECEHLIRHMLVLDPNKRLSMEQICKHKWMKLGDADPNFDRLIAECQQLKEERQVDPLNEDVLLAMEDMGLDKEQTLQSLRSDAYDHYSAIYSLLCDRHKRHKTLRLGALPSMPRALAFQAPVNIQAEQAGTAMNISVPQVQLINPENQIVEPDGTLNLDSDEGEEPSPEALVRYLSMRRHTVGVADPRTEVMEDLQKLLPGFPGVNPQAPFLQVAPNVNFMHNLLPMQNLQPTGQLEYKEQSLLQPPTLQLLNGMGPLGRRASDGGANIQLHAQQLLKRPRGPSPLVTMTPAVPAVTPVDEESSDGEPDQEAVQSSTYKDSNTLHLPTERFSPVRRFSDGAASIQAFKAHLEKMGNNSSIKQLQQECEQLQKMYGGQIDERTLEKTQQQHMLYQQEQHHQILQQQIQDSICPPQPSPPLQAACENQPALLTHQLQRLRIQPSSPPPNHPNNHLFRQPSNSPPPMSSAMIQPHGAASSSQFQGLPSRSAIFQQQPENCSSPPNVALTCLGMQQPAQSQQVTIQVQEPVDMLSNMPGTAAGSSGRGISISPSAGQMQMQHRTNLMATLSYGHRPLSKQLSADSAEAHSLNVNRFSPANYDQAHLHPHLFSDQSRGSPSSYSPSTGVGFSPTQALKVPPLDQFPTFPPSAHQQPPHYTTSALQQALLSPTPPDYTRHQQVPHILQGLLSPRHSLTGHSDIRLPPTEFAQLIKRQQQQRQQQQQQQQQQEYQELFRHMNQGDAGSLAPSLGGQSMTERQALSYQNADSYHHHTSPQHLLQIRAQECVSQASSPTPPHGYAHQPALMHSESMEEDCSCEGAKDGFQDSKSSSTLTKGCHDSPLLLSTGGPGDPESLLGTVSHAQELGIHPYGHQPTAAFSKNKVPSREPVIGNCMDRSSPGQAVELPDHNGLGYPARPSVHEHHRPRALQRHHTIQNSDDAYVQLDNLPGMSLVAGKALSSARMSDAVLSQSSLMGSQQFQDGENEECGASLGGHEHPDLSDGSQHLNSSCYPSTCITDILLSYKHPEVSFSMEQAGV
Chain of DYRK2 (Q92630 whole entry): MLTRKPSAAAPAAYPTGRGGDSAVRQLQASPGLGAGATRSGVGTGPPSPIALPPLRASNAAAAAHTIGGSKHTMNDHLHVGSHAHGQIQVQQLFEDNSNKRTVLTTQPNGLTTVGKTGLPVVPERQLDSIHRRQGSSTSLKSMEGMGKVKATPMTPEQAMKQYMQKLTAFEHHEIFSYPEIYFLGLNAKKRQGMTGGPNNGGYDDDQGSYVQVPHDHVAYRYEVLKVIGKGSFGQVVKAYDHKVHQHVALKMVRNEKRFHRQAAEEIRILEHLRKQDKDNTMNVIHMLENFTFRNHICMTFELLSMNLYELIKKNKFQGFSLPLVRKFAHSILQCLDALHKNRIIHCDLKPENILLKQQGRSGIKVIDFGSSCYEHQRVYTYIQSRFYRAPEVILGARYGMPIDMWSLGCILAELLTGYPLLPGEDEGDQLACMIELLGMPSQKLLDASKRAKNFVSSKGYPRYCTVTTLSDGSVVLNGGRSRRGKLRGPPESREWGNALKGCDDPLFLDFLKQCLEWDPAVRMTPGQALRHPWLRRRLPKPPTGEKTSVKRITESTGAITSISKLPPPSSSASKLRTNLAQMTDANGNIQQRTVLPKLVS
Chain of NUAK1 (O60285 whole entry): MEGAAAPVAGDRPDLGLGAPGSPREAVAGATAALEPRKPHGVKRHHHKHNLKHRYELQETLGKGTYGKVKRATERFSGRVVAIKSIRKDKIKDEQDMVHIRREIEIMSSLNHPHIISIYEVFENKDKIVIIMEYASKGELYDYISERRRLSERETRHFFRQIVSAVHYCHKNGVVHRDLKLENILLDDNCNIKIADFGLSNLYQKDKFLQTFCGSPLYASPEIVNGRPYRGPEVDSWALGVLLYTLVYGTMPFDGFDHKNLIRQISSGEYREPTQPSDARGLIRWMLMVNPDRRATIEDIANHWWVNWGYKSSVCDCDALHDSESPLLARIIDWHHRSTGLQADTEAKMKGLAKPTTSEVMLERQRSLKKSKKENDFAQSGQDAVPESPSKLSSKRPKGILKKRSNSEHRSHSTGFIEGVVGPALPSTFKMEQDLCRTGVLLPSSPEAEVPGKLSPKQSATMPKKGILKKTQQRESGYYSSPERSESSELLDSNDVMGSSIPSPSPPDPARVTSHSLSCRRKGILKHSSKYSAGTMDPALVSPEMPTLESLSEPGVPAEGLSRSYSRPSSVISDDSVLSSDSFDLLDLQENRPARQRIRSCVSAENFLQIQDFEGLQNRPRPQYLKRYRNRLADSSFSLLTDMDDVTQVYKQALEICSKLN
Chain of TSSK1 (Q9BXA7 whole entry): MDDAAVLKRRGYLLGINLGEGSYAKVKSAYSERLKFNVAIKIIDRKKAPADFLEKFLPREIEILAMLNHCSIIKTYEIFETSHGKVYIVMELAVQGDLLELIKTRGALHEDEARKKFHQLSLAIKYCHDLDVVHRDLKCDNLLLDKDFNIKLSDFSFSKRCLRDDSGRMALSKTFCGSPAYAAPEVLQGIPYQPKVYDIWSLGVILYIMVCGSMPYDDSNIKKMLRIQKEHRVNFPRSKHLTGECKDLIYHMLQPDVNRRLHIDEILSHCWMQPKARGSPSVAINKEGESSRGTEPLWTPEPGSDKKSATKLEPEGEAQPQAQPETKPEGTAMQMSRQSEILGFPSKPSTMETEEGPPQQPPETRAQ

**Q.** Which results are given for CN(C)c1cc[n+](CCCCCCCCCCCC[n+]2ccc(N(C)C)cc2)cc1 [ICL-CCIC-0019]?
**A.** [18F]-D4-FCH tumor uptake AUC0–60 (HCT116 xenografts; 6 hours after 10 mg/kg i.p. single dose): 187.7 (%ID/mL)*min; [18F]-D4-FCH tumor uptake AUC0–60 (HCT116 xenografts; 24 hours after 10 mg/kg i.p. single dose): 145.8 (%ID/mL)*min; [18F]-D4-FCH tumor uptake AUC0–60 (HCT116 xenografts; 48 hours after 10 mg/kg i.p. single dose): 139.4 (%ID/mL)*min; remaining activity at 10 µM (NUAK1): 103%; remaining activity at 10 µM (DYRK2): 96%; remaining activity at 10 µM (SIK3): 102%; remaining activity at 10 µM (TTK): 101%; remaining activity at 10 µM (PAK2): 107%; remaining activity at 10 µM (IR): 103%; remaining activity at 10 µM (SIK2): 109%; remaining activity at 10 µM (PKBa): 101%; remaining activity at 10 µM (p38d MAPK): 100%; remaining activity at 10 µM (HIPK1): 106%; remaining activity at 10 µM (PKCa): 98%; remaining activity at 10 µM (IKKe): 123%; remaining activity at 10 µM (TAO1): 100%; remaining activity at 10 µM (ZAP70): 102%; remaining activity at 10 µM (PKD1): 105%; remaining activity at 10 µM (EF2K): 99%; remaining activity at 10 µM (CK1δ): 100%; remaining activity at 10 µM (PIM2): 103%; remaining activity at 10 µM (JAK2): 90%; remaining activity at 10 µM (VEG-FR): 80%; remaining activity at 10 µM (MARK4): 95%; remaining activity at 10 µM (TSSK1): 107%; remaining activity at 10 µM (Src): 105%

— article PMC5095062, “The novel choline kinase inhibitor ICL-CCIC-0019 reprograms cellular metabolism and inhibits cancer cell growth” (Oncotarget, 2016)
